The values below come from paper PMC7598997, “Synthesis and evaluation of anticancer activities of 2- or 4-substituted 3-(N-benzyltriazolylmethyl)-13α-oestrone derivatives” (Journal of Enzyme Inhibition and Medicinal Chemistry, 2020).

In series [1] the test system is tubulin. Conditions: cited from earlier work.
Series [2] deals with HeLa cells. On the set-up: method as in PMID 27363663. Particulars: HeLa cells ref 15; cited from earlier work.
In series [3] the test system is HeLa cells. Details: method as in PMID 27363663. Conditions: HeLa cells ref 15; cited from earlier work. The source holds these as a separate data set.
In series [4] the test system is A2780 cell line. On the set-up: method as in PMID 27263437. Particulars: described earlier ref 16; cited from earlier work.
In series [5] the test system is MCF-7 cell line. Details: method as in PMID 27263437. Particulars: described earlier ref 16; cited from earlier work.
Series [6] has as its system tested cell lines. On the set-up: method as in PMID 27263437. Particulars: described earlier ref 16; cited from earlier work.
Series [7] concerns the target 17β-hydroxysteroid dehydrogenase 1, 17β-HSD1. Conditions: read-out: 17β-HSD1 inhibition IC50; cited from earlier work.
Series [8] has as its system steroid sulfatase, STS. Details: method as in PMID 30230387. Particulars: cited from earlier work.
In series [9] the test system is OATP2B1. On the set-up: method as in PMID 30498534. Particulars: read-out: OATP2B1 inhibition IC50; cited from earlier work.
The test system of series [10] is non-cancerous mouse embryo fibroblast cell line NIH/3T3. The series is described as follows: MTT assay for cancer selectivity, NIH/3T3. It counts as cell-based. Here is the method:
(§1) The antiproliferative properties of the newly synthesised triazoles (11a,b–15a,b) were determined on a panel of human adherent cancer cell lines of gynaecological origin. MCF-7 and MDA-MB-231 were isolated from breast cancers differing in biochemical background, while A2780 cells were isolated from ovarian cancer. The cancer selectivity of compound 12a was tested on the non-cancerous mouse embryo fibroblast cell line NIH/3T3. All cell lines were purchased from European Collection of Cell Cultures (ECCAC, Salisbury, UK). Cells were cultivated in minimal essential medium supplemented with 10% foetal bovine serum, 1% non-essential amino acids and an antibiotic–antimycotic mixture. All media and supplements were obtained from Lonza Group Ltd., Basel, Switzerland. Near-confluent cancer cells were seeded onto a 96-well microplate (5000 cells/well) and, after overnight standing, 200 µL new medium, containing the tested compounds at 10 and 30 µM, was added. After incubation for 72 h at 37 °C in humidified air containing 5% CO2, the living cells were assayed by the addition of 20 µL of 5 mg/ml 3-(4,5-dimethylthiazol-2-yl)-2,5-diphenyltetrazolium bromide (MTT) solution. MTT was converted by intact mitochondrial reductase and precipitated as purple crystals during a 4-h contact period. The medium was next removed and the precipitated formazan crystals were dissolved in 100 µL of DMSO during a 60-min period of shaking at 37 ^оC.
(§2) Finally, the reduced MTT was assayed at 545 nm, using a microplate reader utilising wells with untreated cells serving as control. […] All in vitro experiments were carried out on two microplates with at least five parallel wells. Stock solutions of the tested substances (10 mM) were prepared in DMSO. […] Cisplatin (Ebewe Pharma GmbH, Unterach, Austria) was used as positive control.

The test system of series [11] is MCF-7 cells. The series is described as follows: MTT antiproliferative assay, MCF-7. It counts as cell-based, human. Conditions: Homo sapiens, MCF7, MTT. Here is the method: as §1, §2
Series [12] deals with MDA-MB-231 cells. The series is described as follows: MTT antiproliferative assay, MDA-MB-231. The series is classed as cell-based, human. Conditions: Homo sapiens, MTT. Here is the method: as §1, §2
Series [13] deals with tubulin. Briefly: cell-free in vitro tubulin polymerisation assay. The series is classed as biochemical. Conditions: vs untreated control. Here is the method: The effect of brominated triazole (12a) on tubulin polymerisation was tested with the HTS-Tubulin Polymerisation Assay Biochem Kit (Bio-Kasztel Ltd., Budapest, Hungary) according to the manufacturer’s recommendations. Briefly, 10 µl of a 0.125 or 0.25 mM solution of the test compound (12a) was placed on a prewarmed (37 °C), UV-transparent microplate. About 10 µl 10 µM paclitaxel and 10 µl General Tubulin Buffer were used as positive and negative control, respectively. 100 µl 3.0 mg/ml tubulin in 80 mM PIPES pH 6.9, 2 mM MgCl2, 0.5 mM EGTA, 1 mM GTP was added to each sample, and the microplate was immediately placed into a prewarmed (37 °C) UV-spectrophotometer (SpectoStarNano, BMG Labtech, Ortenberg, Germany) to start the recording reaction. A 60-min kinetic measurement protocol was applied to determine the absorbance of the reaction solution per minute at 340 nm. For the evaluation of the experimental data, the maximum reaction rate (Vmax: Δabsorbance/min) was calculated. Moving averages of absorbances determined at three consecutive timepoints were calculated and the highest difference between two succeeding moving averages was taken as the Vmax of the tested compound in the tubulin polymerisation reaction. Each sample was prepared in two parallels and the measurements were repeated twice. For statistical evaluation, Vmax data were analysed by the one-way ANOVA test with the Newmann–Keuls post-test by using Prism 4.01 software (GraphPad Software, San Diego, CA).

Series [14] concerns A2780 cells. Briefly: MTT antiproliferative assay, A2780. The series is classed as cell-based, human. Conditions: Homo sapiens, MTT. The method, then:
as §1, §2

Consider `COc1cc2c(cc1O)CC[C@@H]1[C@@H]2CC[C@]2(C)[C@@H](O)CC[C@@H]12` [2-methoxyestradiol], for which the “effect on tubulin polymerisation” value in series [1] was “inhibit tubulin polymerisation”.

As for `CCC[C@H]1[C@@H]2CCc3cc(OCc4cn(Cc5ccccc5)nn4)ccc3[C@H]2CC[C@]1(C)CO` [Compound 3], the cell cycle effect result in [2] is “cell cycle arrest at G2/M”. The migration and invasion result in [3] was “inhibits the migration and invasion”. Further, in series [1], the “maximum rate of microtubule formation” value is on record as “significantly increases the maximum rate of microtubule formation”.

In the case of `C[C@@]12CC[C@@H]3c4ccc(OCc5cn(Cc6ccccc6)nn5)cc4CC[C@H]3[C@@H]1CCC2=O` [Compound 4a, 3-[{1-benzyl-1H-1,2,3-triazol-4-yl}methoxy]-13α-estra-1,3,5(10)-trien-17-one], the IC50 in [4] and in [5] was 0.5 to 0.6 µM each time.

Consider `CC(C)(C)c1ccc(Cn2cc(COc3ccc4c(c3)CC[C@@H]3[C@@H]4CC[C@@]4(C)C(=O)CC[C@@H]34)nn2)cc1` [Compound 4b, 3-[{1-(4-tert-butylbenzyl)-1H-1,2,3-triazol-4-yl}methoxy]-13α-estra-1,3,5(10)-trien-17-one], for which the “influence on the growth of the tested cell lines” value in [6] is “did not have marked influence on the growth”.

As to `C[C@@]12CC[C@@H]3c4cc(Br)c(O)cc4CC[C@H]3[C@@H]1CCC2=O` [Compound 5], in series [7], the IC50 was about 1 µM.

As to `C[C@@]12CC[C@@H]3c4ccc(O)c(Br)c4CC[C@H]3[C@@H]1CCC2=O` [Compound 6], the IC50 in [7] was about 1 µM. The STS inhibition result in series [8] is “dual STS and 17β-HSD1 inhibition”.

For the compound `CCOP(=O)(OCC)c1cc2c(cc1O)CC[C@@H]1[C@@H]2CC[C@@]2(C)C(=O)CC[C@@H]12` [Compound 7], the IC50 in series [7] and in series [9] was 1 to 2 µM throughout.

On to `CCOP(=O)(OCC)c1cc2c(cc1OCc1ccccc1)CC[C@@H]1[C@@H]2CC[C@@]2(C)C(=O)CC[C@@H]12` [Compound 8], for which the IC50 in series [9] is 0.2 µM.

`C[C@@]12CC[C@@H]3c4ccc(OCc5cn(Cc6ccccc6)nn5)c(Br)c4CC[C@H]3[C@@H]1CCC2=O` [Compound 12a, 3-[{1-benzyl-1H-1,2,3-triazol-4-yl}methoxy]-4-bromo-13α-estra-1,3,5(10)-trien-17-one] showed a melting point of 188 to 190 °C. In addition, the inhibition at 10 µM in series [10] (NIH3T3, NIH/3T3, 10 µM, MTT, read-out: inhibition of cell growth) is 28.7 ± 1.26%. Also, the inhibition at 30 µM in series [10] (NIH3T3, NIH/3T3, 30 µM, MTT, read-out: inhibition of cell growth) amounted to 37.9 ± 0.75%. This compound also showed an IC50 in [10] (NIH3T3, NIH/3T3, MTT) of over 30 µM. In series [11] (MCF-7, 10 µM, 72 h, read-out: Inhibition (%) ± SEM), the inhibition at 10 µM was 42 ± 0.97%. In [11] (MCF-7, 30 µM, 72 h, read-out: Inhibition (%) ± SEM), the inhibition at 30 µM was 52.5 ± 0.94%. For the same compound, the IC50 in series [11] (MCF-7, 72 h, read-out: calculated IC50) is 12.7 µM. The inhibition at 10 µM in [12] (MDA-MB-231, 10 µM, 72 h, read-out: Inhibition (%) ± SEM) came to 52.9 ± 1.32%. The inhibition at 30 µM in series [12] (MDA-MB-231, 30 µM, 72 h, read-out: Inhibition (%) ± SEM) came to 53.8 ± 2.43%. Further, in series [12] (MDA-MB-231, 72 h, read-out: calculated IC50), the half-inhibitory concentration (IC50) is 8.8 µM. In [13] (125 µM test compound), the “maximum rate of tubulin polymerisation (Vmax)” value is “increased”. For the same compound, the “maximum rate of tubulin polymerisation (Vmax)” value in series [13] (250 µM test compound) is on record as “increased by our test compound which was significant”. For the same compound, the inhibition at 10 µM in [14] (A2780, 10 µM, 72 h, read-out: Inhibition (%) ± SEM) was 93.16 ± 0.47%. In addition, in series [14] (A2780, 30 µM, 72 h, read-out: Inhibition (%) ± SEM), the inhibition at 30 µM was found to be 95.43 ± 0.42%. Also, the IC50 in series [14] (A2780, 72 h, read-out: calculated IC50) is 0.55 µM.

For `CC(=O)O[C@H]1C(=O)[C@@]2(C)[C@H]([C@H](OC(=O)c3ccccc3)[C@]3(O)C[C@H](OC(=O)[C@H](O)[C@@H](NC(=O)c4ccccc4)c4ccccc4)C(C)=C1C3(C)C)[C@]1(OC(C)=O)CO[C@@H]1C[C@@H]2O` [Paclitaxel, reference compound], the “increase in Vmax” value in series [13] (10 µM paclitaxel, positive control) was “threefold increase in Vmax”.
